In patent US4364944A, “Cephalosporins” (Dr. Karl Thomae Gesellschaft mit beschrankter Haftung, priority 1980, dated 1982) one finds MIC and ED50 data, which are given here for six molecules.

Assay [1] concerns E. coli ATCC 11775. Kind of assay: Minimum inhibiting concentration, serial dilution test in the microtiter system. Format: cell-based. To be noted: Escherichia coli, ATCC11775, 37° C., 18 to 20 hours. The procedure:
(§1) These tests were performed using the serial dilution test in the microtiter system. The effect of the test compound on bacteriostasis was tested in a liquid medium at the following concentrations: 128, 64, 32, 16, 8, 4, 2, 1, 0.5, 0.25, 0.12 and 0.06 μgm/ml. The nutrient medium consisted of 10 gm of peptone, 8 gm of meat extract oxoid, 3 gm of sodium chloride, and 2 gm of sec. sodium phosphate diluted with distilled water to […] (pH 7.2-7.4). The age of the primary cultures was approximately 20 hours. The standardization of the bacteria suspension was effected using a photometer according to the method of Eppendorf (test tube .phi. 14 mm, filter 546 nm), using for comparison a barium sulfate suspension formed by the addition of 3.0 ml of 1% barium chloride solution to 97 ml of 1% sulfuric acid. After standardization, the test microorganisms were further diluted to a concentration of 1:1500, using a sodium chloride solution.
(§2) 16 mgm of the particular test compound were put into a 10 ml measuring flask, and the flask was subsequently filled to the mark with the solvent. The further dilution series was standardized with distilled water or the appropriate solvent.
(§3) The depressions of the microtiter plates were filled with 0.2 ml of nutrient medium. 0.01 ml of the appropriate test compound solution was then added, followed by inoculation with 0.1 ml (1 drop) of the standardized bacteria suspension. The bacteria were incubated at 37° C. for 18 to 20 hours. Control tests using only the solvent were carried out simultaneously.
(§4) The readings were made macroscopically to determine the minimum inhibitory concentration (the lowest still bacteriostatically effective concentration).
(§5) Staphylococcus aureus SG 511, Escherichia coli ATCC 11 775, Pseudomonas aeruginosa hamburgensis and Pseudomonas aeruginosa BC 19, Serratia marcescens ATCC 13 800, Klebsiella pneumoniae ATCC 10031 and BC 6, Proteus mirabilis BC 17, Proteus rettgeri BC 7, Enterobacter Cloaceae ATCC 13047 and E. coli R+TEM (β-lactamase carrier).

The subject of assay [2] is E. coli R + TEM. The description is as above. Format: cell-based. To be noted: Escherichia coli, read-out: Minimum inhibiting concentration (MIC). As for the experimental part: as §1, §2, §3, §4, §5
The subject of assay [3] is Kl. pneum. ATCC 10031. Described as above. To be noted: Klebsiella pneumoniae, ATCC10031, 37° C., 18 to 20 hours. Format: cell-based. As for the experimental part:
as §1, §2, §3, §4, §5

The test system of assay [4] is Kl. pneum. BC 6. Described as above. In kind it is cell-based. To be noted: Klebsiella pneumoniae, 37° C., 18 to 20 hours. As for the experimental part: as §1, §2, §3, §4, §5
For assay [5], the system named is Prot. mirab. BC 17. Described as above. In kind it is cell-based. To be noted: Proteus mirabilis, 37° C., 18 to 20 hours. As for the experimental part:
as §1, §2, §3, §4, §5

Assay [6] concerns Pseud. BC 19. The description is as above. Format: cell-based. To be noted: Pseudomonas aeruginosa, 37° C., 18 to 20 hours. The procedure:
as §1, §2, §3, §4, §5

In assay [7] the test system is Serr. marcesc. ATCC 13880. The description is as above. As to conditions: Serratia marcescens, ATCC13880, 37° C., 18 to 20 hours. In kind it is cell-based. As for the experimental part: as §1, §2, §3, §4, §5
Assay [8] has as its system Staph. aureus SG 511. The assay is described as above. In kind it is cell-based. To be noted: Staphylococcus aureus, SG511, 37° C., 18 to 20 hours. The procedure: as §1, §2, §3, §4, §5
Assay [9] has as its system Pseud. Hbg. The assay is described as above. To be noted: Pseudomonas aeruginosa, 37° C., 18 to 20 hours. Format: cell-based, Pseudomonas aeruginosa hamburgensis. The procedure: as §1, §2, §3, §4, §5
In assay [10] the test system is Prot. rettg. The description is as above. Format: cell-based, Proteus rettgeri. As to conditions: Providencia rettgeri, 37° C., 18 to 20 hours. As for the experimental part:
as §1, §2, §3, §4, §5

The subject of assay [11] is Ent. cloac. ATCC 13047. Described as above. As to conditions: Enterobacter, ATCC13047, 37° C., 18 to 20 hours. In kind it is cell-based, Enterobacter Cloaceae. The procedure:
as §1, §2, §3, §4, §5

Assay [12] deals with E. coli ATCC 11775. Kind of assay: In vivo activity against experimental E. coli infection in mice. On the set-up: species or system E. coli in female mice of the NMRI strain. As to conditions: Escherichia coli, ATCC11775, sc, 168 h; s.c. administration once, 1 hour after i.p. infection; dose at which 50% of the animals survive; 7 days. The procedure:
A few compounds of the invention and cefuroxim were tested in vivo against experimental infections in mice. E. coli ATCC 11775 was used as the pathogenic bacteria. An intraperitoneal infection was induced with 0.2 ml of a 5% mucin suspension of the bacteria. This corresponds to approximately 1.4×10^6 E. coli bacteria per mouse. Female mice of the NMRI strain were divided into groups of 10 animals, of which 2 groups remained untreated while the remaining groups were treated with various doses of the particular cephalosporin according to the invention for the purpose of determining the ED50 (dose at which 50% of the animals survive). The treatment was applied once (1 hour after infection). The observation period was 7 days. The results of these tests are shown in Table III below, where the numbering of the compounds again corresponds to that used in Table I.

For assay [13], the system named is K. pneum. 1082 E. Kind of assay: Minimum inhibiting concentration, serial dilution test in the microtiter system. Format: cell-based. As to conditions: Klebsiella pneumoniae, 37° C., 18 to 20 hours. The procedure:
as §1, §2, §3, §4

≈ marks a conversion by molar mass, not a printed value.

Take `CO/N=C(\C(=O)N[C@@H]1C(=O)N2C(C(=O)O)=C(COC(N)=O)CS[C@H]12)c1ccco1` [Cefuroxim, reference compound]: the MIC in assay [1] was 8 µg/mL (≈ 18.9 µM); in [2] it was 4 µg/mL (≈ 9.43 µM); in assay [3] it was 2 µg/mL (≈ 4.71 µM); in assay [4], 4 µg/mL (≈ 9.43 µM); in assay [5], 0.5 µg/mL (≈ 1.18 µM); in assay [6] it was over 128 µg/mL. For the same molecule, the MIC is 8 µg/mL (≈ 18.9 µM) in [7]; 1 µg/mL (≈ 2.36 µM) in assay [8]; over 128 µg/mL in assay [9]; 2 µg/mL (≈ 4.71 µM) in assay [10]; 32 µg/mL (≈ 75.4 µM) in [11]. Also, the ED50 in assay [12] was over 100 mg/kg.

Consider `Cn1nnnc1SCC1=C(C(=O)O)N2C(=O)[C@@H](NC(=O)C(NC(=O)Nc3cnc(NCc4ccco4)nc3O)c3csc(N)n3)[C@H]2SC1` (some centres unmarked) [Compound 1], for which the MIC in [1] was determined as 0.03 µg/mL (≈ 0.0419 µM); in assay [2], 0.5 µg/mL (≈ 0.699 µM); in assay [3] it was 0.06 µg/mL (≈ 0.0838 µM); in [4] it was 0.03 µg/mL (≈ 0.0419 µM); in assay [5] it was 0.01 µg/mL (≈ 0.014 µM); in assay [6], 16 µg/mL (≈ 22.4 µM). Besides, the MIC worked out at 0.06 µg/mL (≈ 0.0838 µM) in assay [7]; 1 µg/mL (≈ 1.4 µM) in assay [8]; 16 µg/mL (≈ 22.4 µM) in assay [9]; 0.06 µg/mL (≈ 0.0838 µM) in assay [10]; 0.25 µg/mL (≈ 0.349 µM) in assay [11]; 16 µg/mL (≈ 22.4 µM) in assay [13]. Moreover, in assay [12], the ED50 stood at 0.8 mg/kg.

As for `Cn1nnnc1SCC1=C(C(=O)O)N2C(=O)[C@@H](NC(=O)C(NC(=O)Nc3cnc(NCc4ccc(S(N)(=O)=O)s4)nc3O)c3csc(N)n3)[C@H]2SC1` (some centres unmarked) [Compound 4], the MIC stood at 0.01 µg/mL (≈ 0.0123 µM) in [1]; 0.25 µg/mL (≈ 0.308 µM) in assay [2]; 0.03 µg/mL (≈ 0.037 µM) in assay [3]; 0.03 µg/mL (≈ 0.037 µM) in [4]; 0.01 µg/mL (≈ 0.0123 µM) in assay [5]; 8 µg/mL (≈ 9.87 µM) in assay [6]. Moreover, the MIC in [7] amounted to 0.06 µg/mL (≈ 0.074 µM); in assay [8] it was 1 µg/mL (≈ 1.23 µM); in [9] it was 16 µg/mL (≈ 19.7 µM); in assay [10], 0.01 µg/mL (≈ 0.0123 µM); in assay [11] it was 0.06 µg/mL (≈ 0.074 µM); in [13], 8 µg/mL (≈ 9.87 µM). This molecule yielded an ED50 in assay [12] of under 0.5 mg/kg.

For the molecule `Nc1nc(C(NC(=O)Nc2cnc(NCc3ccc(S(N)(=O)=O)s3)nc2O)C(=O)N[C@@H]2C(=O)N3C(C(=O)O)=C(CSc4nnnn4CCO)CS[C@H]23)cs1` (some centres unmarked) [Compound 6], the MIC in assay [1] was under 0.03 µg/mL; in assay [2], 0.5 µg/mL (≈ 0.595 µM); in [3], 0.06 µg/mL (≈ 0.0713 µM); in assay [4], 0.03 µg/mL (≈ 0.0357 µM); in assay [5], 0.03 µg/mL (≈ 0.0357 µM); in assay [6] it was 8 µg/mL (≈ 9.51 µM). The MIC worked out at 0.06 µg/mL (≈ 0.0713 µM) in [7]; 1 µg/mL (≈ 1.19 µM) in assay [8]; 16 µg/mL (≈ 19 µM) in assay [9]; 0.06 µg/mL (≈ 0.0713 µM) in assay [10]; 0.06 µg/mL (≈ 0.0713 µM) in [11]; 16 µg/mL (≈ 19 µM) in [13]. Also, the ED50 in [12] was under 0.5 mg/kg.

As to `CO[C@@]1(NC(=O)C(NC(=O)Nc2cnc(NCc3ccc(S(N)(=O)=O)s3)nc2O)c2ccccc2)C(=O)N2C(C(=O)O)=C(CSc3nnnn3C)CS[C@@H]21` (some centres unmarked) [Compound 11], the MIC came out at 0.12 µg/mL (≈ 0.147 µM) in assay [1]; 0.25 µg/mL (≈ 0.305 µM) in assay [2]; 0.25 µg/mL (≈ 0.305 µM) in [3]; 0.25 µg/mL (≈ 0.305 µM) in assay [4]; 0.06 µg/mL (≈ 0.0733 µM) in [5]; 8 µg/mL (≈ 9.77 µM) in assay [6]. The MIC was found to be 0.25 µg/mL (≈ 0.305 µM) in assay [7]; 1 µg/mL (≈ 1.22 µM) in [8]; 16 µg/mL (≈ 19.5 µM) in assay [9]; 0.5 µg/mL (≈ 0.611 µM) in assay [10]; 0.5 µg/mL (≈ 0.611 µM) in assay [11]; 0.25 µg/mL (≈ 0.305 µM) in assay [13]. In [12], this molecule registered an ED50 of about 5 mg/kg.

In the case of `CO[C@@]1(NC(=O)C(NC(=O)Nc2cnc(NCc3ccco3)nc2O)c2ccccc2)C(=O)N2C(C(=O)O)=C(CSc3nnnn3C)CS[C@@H]21` (some centres unmarked) [Compound 14], the MIC in [1] came to 0.12 µg/mL (≈ 0.166 µM); in [2] it was 0.25 µg/mL (≈ 0.345 µM); in [3], 0.25 µg/mL (≈ 0.345 µM); in assay [4], 0.25 µg/mL (≈ 0.345 µM); in [5], 0.12 µg/mL (≈ 0.166 µM); in [6], 8 µg/mL (≈ 11.1 µM). The MIC in assay [7] turned out to be 0.25 µg/mL (≈ 0.345 µM); in assay [8], 0.5 µg/mL (≈ 0.691 µM); in [9], 8 µg/mL (≈ 11.1 µM); in [10] it was 1 µg/mL (≈ 1.38 µM); in assay [11] it was 1 µg/mL (≈ 1.38 µM); in assay [13], 0.25 µg/mL (≈ 0.345 µM). Besides, the ED50 in assay [12] is 2.5 to 5 mg/kg.
